Experiments:
[1] = test system: dermal fibroblasts isolated from 17 individuals; experiment: Real time RT-PCR of ECM components, nuclear hormone receptors and coregulators in fibroblasts from 17 individuals; format: cell-based, human; conditions: 24 hours
Procedure: Total RNA was extracted from cells using RNA aqueous kit (Ambion, USA). First-strand cDNAs were synthesized with Superscript III reverse transcriptase (Invitrogen, USA) and 1 μg of total RNA using oligo d(T) priming in a final reaction volume of 40 μL.
Levels of specific mRNAs were measured by real-time RT-PCR using Platinum SYBR Green qPCR SuperMix UDG (Invitrogen) according the protocol on the LightCycler 2.0 (Roche, US). The cycling program steps were: for one cycle 50° C. 2 min, for one cycle 95° C. 2 min and for 45 cycles: 95° C. 10 s, 60° C. 10 s, 72° C. 10 s. All samples were run in triplicates. Results were analyzed with the comparative Ct method (from Applied Biosystems manual; Livak and Schmittgen, 2001). Every sample was normalized for the housekeeping gene GAPDH. Transcript levels in the atRA and TGFb1 treated samples were compared to control samples.

[2] = test system: skin fibroblasts from 30 individuals; experiment: Combined score of expression stimulation of 5 genes in fibroblast isolates (FIG. 1); format: cell-based, human; conditions: 24 hour treatment, atRA 10^-7 M, Matrixyl 1 μM, KappaElastin 1 μM
Procedure: Human dermal fibroblasts were grown in DMEM cell culture media containing 10% fetal bovine serum and 1% penicillin/streptomycin (Invitrogen). For all experiments, third-passage fibroblasts were used one day after reaching confluence. […] After 24 hour treatment RNA and protein was isolated and analyzed for the expression of components of ECM and transcriptional regulators.
Total RNA from various human tissues was purified using RNAwiz (Ambion, USA) and subjected to subsequent DNase I treatment using the DNA-Free kit (Ambion). Total RNA from cancer cells was purified by using 4PCRmini kit (Ambion). First-strand cDNAs were synthesized with Superscript III reverse transcriptase (Invitrogen, USA) and 5 μg of total RNA using oligo d(T) priming in a final reaction volume of 50 μL
The cDNA was amplified by PCR using the 2.5 U Hot-Firepol (Solis BioDyne, Estonia) and buffer Yellow (Naxo, Estonia). Reaction was performed in a 10 ul volume, using 0.5 ul cDNA as a template. Following primer sets were designed for this study:
The combined score of expression stimulation of 5 genes was calculated and blotted for each fibroblast isolate. […] This biological variation provides a good biological rational to use molecular diagnostics for matching cosmetics product and skin cells of specific individual (personalized cosmetics).

[3] = fibroblasts from 17 individuals, 10 ng/ml

## TGFbeta1: well-characterized profibrotic factor
[1]; 10 ng/ml, 17 individuals
  expression of metalloproteinases and PPARγ: suppresses significantly
  gene expression of majority of collagens: strongly upregulated
  individual variation of collagen gene expression between individual fibroblasts: up to 13 fold
  variation of expression of PPARγ between different individuals: up to 17 fold
[1]; TGFβ1 10 ng/ml vs atRA 1 μM
  effect on gene expression of different ECM genes compared with atRA: noticeably stronger
[1]; [3]
  CBP expression in TGFbeta1 treatment compared to control, from-to between individuals: (from −2.24 to 2.29) fold
  COL1A1 expression in TGFbeta1 treatment compared to control, from-to between individuals: (from −1.11 to 7.75) fold
  COL1A2 expression in TGFbeta1 treatment compared to control, from-to between individuals: (from 1.14 to 9.58) fold
  COL3A1 expression in TGFbeta1 treatment compared to control, from-to between individuals: (from −1.75 to 6.82) fold
  COL4A1 expression in TGFbeta1 treatment compared to control, from-to between individuals: (from 2.52 to 16.22) fold
  COL5A1 expression in TGFbeta1 treatment compared to control, from-to between individuals: (from −1.61 to 6.08) fold
  COL5A2 expression in TGFbeta1 treatment compared to control, from-to between individuals: (from 1.3 to 3.42) fold
  CTGF expression in TGFbeta1 treatment compared to control, from-to between individuals: (from −1.8 to 11.00) fold
  ELN expression in TGFbeta1 treatment compared to control, from-to between individuals: (from −3.33 to 10.63) fold
  FN 1 transcr.v.1 expression in TGFbeta1 treatment compared to control, from-to between individuals: (from −3.23 to 3.75) fold
  Individual variation of gene expression in TGFbeta1 treatment: CBP: 4.53 fold
  Individual variation of gene expression in TGFbeta1 treatment: COL1A1: 8.86 fold
  Individual variation of gene expression in TGFbeta1 treatment: COL1A2: 8.44 fold
  Individual variation of gene expression in TGFbeta1 treatment: COL3A1: 8.57 fold
  Individual variation of gene expression in TGFbeta1 treatment: COL4A1: 13.7 fold
  Individual variation of gene expression in TGFbeta1 treatment: COL5A1: 7.69 fold
  Individual variation of gene expression in TGFbeta1 treatment: COL5A2: 2.12 fold
  Individual variation of gene expression in TGFbeta1 treatment: CTGF: 12.8 fold
  Individual variation of gene expression in TGFbeta1 treatment: ELN: 13.96 fold
  Individual variation of gene expression in TGFbeta1 treatment: FN 1 transcr.v.1: 6.98 fold
  Individual variation of gene expression in TGFbeta1 treatment: MMP1, collagenase 1: 7.02 fold
  Individual variation of gene expression in TGFbeta1 treatment: MMP2 gelatinase: 4.77 fold
  Individual variation of gene expression in TGFbeta1 treatment: MMP3 stromelysin: 5.8 fold
  Individual variation of gene expression in TGFbeta1 treatment: MMP7: 32.8 fold
  Individual variation of gene expression in TGFbeta1 treatment: MMP10, stromelysin 2: 45.93 fold
  Individual variation of gene expression in TGFbeta1 treatment: NCOA1: 5.64 fold
  Individual variation of gene expression in TGFbeta1 treatment: NCOA2: 1.58 fold
  Individual variation of gene expression in TGFbeta1 treatment: NCOA3: 6.21 fold
  Individual variation of gene expression in TGFbeta1 treatment: NCOA5: 4.56 fold
  Individual variation of gene expression in TGFbeta1 treatment: NCOA6: 2.82 fold
  Individual variation of gene expression in TGFbeta1 treatment: NCOR1: 7.31 fold
  Individual variation of gene expression in TGFbeta1 treatment: PPARG: 17.71 fold
  Individual variation of gene expression in TGFbeta1 treatment: TIMP1: 5.73 fold
  MMP1, collagenase 1 expression in TGFbeta1 treatment compared to control, from-to between individuals: (from −5.05 to 1.97) fold
  MMP2 gelatinase expression in TGFbeta1 treatment compared to control, from-to between individuals: (from −2.51 to 2.26) fold
  MMP3 stromelysin expression in TGFbeta1 treatment compared to control, from-to between individuals: (from −3.22 to 2.58) fold
  MMP7 expression in TGFbeta1 treatment compared to control, from-to between individuals: (from −29.96 to 2.84) fold
  MMP10, stromelysin 2 expression in TGFbeta1 treatment compared to control, from-to between individuals: (from −5.0 to 40.93) fold
  NCOA1 expression in TGFbeta1 treatment compared to control, from-to between individuals: (from −2.76 to 2.88) fold
  NCOA2 expression in TGFbeta1 treatment compared to control, from-to between individuals: (from −2.54 to −0.96) fold
  NCOA3 expression in TGFbeta1 treatment compared to control, from-to between individuals: (from −4.81 to 1.4) fold
  NCOA5 expression in TGFbeta1 treatment compared to control, from-to between individuals: (from −3.13 to 1.43) fold
  NCOA6 expression in TGFbeta1 treatment compared to control, from-to between individuals: (from 1.64 to 1.18) fold
  NCOR1 expression in TGFbeta1 treatment compared to control, from-to between individuals: (from −2.54 to 4.77) fold
  PPARG expression in TGFbeta1 treatment compared to control, from-to between individuals: (from −16.51 to 1.2) fold
  TIMP1 expression in TGFbeta1 treatment compared to control, from-to between individuals: (from −2.45 to 3.28) fold

## palmitoys pentapeptide-3 [Matrixyl]
[2]
  combined score of expression stimulation of 5 genes (COL1A1, COL2A1, elastin, proteoglycan, TIMP1) per fibroblast isolate: 3 groups of fibroblasts that have different response
